Experimental data as given in US5994334A, “Androgen synthesis inhibitors” (priority 1997, dated 1999).
Where two headings read alike, the source gives them in different places.

Assays:
[1] = biological target: T1, human 17α-hydroxylase/C17,20-lyase (Homo sapiens, UniProt P05093); assay: Inhibition of human testicular 17α-hydroxylase/C17,20-lyase (enzyme complex as a whole); assay type: biochemical; conditions: NI = no inhibition
T1 construct: incubating human testicular microsomes; from tissue; host or cells: human testis, microsomes
T1 sequence (P05093 1-508): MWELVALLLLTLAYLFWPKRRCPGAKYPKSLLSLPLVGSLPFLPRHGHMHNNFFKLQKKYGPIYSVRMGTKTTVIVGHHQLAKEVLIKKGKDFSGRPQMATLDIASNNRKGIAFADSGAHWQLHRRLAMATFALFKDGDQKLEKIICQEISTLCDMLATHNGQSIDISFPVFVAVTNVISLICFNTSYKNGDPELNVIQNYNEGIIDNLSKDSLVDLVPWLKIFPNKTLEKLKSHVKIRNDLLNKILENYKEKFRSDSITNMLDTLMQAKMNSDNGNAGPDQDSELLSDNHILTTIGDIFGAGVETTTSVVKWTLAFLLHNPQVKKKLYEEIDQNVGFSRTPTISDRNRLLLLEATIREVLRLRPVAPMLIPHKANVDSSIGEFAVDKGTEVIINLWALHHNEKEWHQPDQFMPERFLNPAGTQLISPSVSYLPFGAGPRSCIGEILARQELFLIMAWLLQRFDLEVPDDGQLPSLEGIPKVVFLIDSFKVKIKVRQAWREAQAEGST
Method: (§1) The conversion of radiolabeled pregnenolone to 17α-hydroxypregnenolone and DHEA by 17α-hydroxylase/C17,20 -lyase was measured by incubating human testicular microsomes with different concentration of test compounds. Reverse phase HPLC was used to separate and accurately quantify the amount of substrate and metabolites. The 17α-hydroxylase and C17,20 -lyase activities were calculated separately. The activity of 17α-hydroxylase was calculated from the conversion of pregnenolone to 17α-hydroxypregnenolone and DHEA and the activity of C17,20 -lyase was based on the conversion of pregnenolone to DHEA. Although 17α-hydroxypregnenolone is the substrate converted to DHEA by C17,20 -lyase, it has been reported that this 17α-hydroxy intermediate is not released from the enzyme binding site during conversion (Nakajin et al., 1981a,b). Also, there are species differences in substrate requirements. Pregnenolone is the natural substrate rather than progesterone for human testicular 17α-hydroxylase and C17,20 -lyase. Therefore, pregnenolone was used as substrate for measuring the activity of this enzyme complex.

[2] = biological target: T2, Human Testicular 17α-Hydroxylase (Homo sapiens, UniProt P05093); assay: Inhibition of human testicular 17α-hydroxylase (pregnenolone substrate, testicular microsomes); assay type: biochemical; conditions: for inhibition at 0.1 µM: read-out: % Inhibition 17α-hydroxylase, [I] = 100 nM; for inhibition at 0.4 µM: read-out: % Inhibition 17α-hydroxylase, [I] = 400 nM
T2 construct: incubating human testicular microsomes; from tissue; host or cells: human testis, microsomes
T2 sequence (P05093 1-508): T1 sequence (P05093 1-508)
Method: as §1

[3] = biological target: T3, Human Testicular C17,20-lyase (Homo sapiens, UniProt P05093); assay: Inhibition of human testicular C17,20-lyase (pregnenolone substrate, testicular microsomes); assay type: biochemical; conditions: for inhibition at 0.1 µM: read-out: % Inhibition C17,20-lyase, [I] = 100 nM; for inhibition at 0.4 µM: read-out: % Inhibition C17,20-lyase, [I] = 400 nM
T3 construct: incubating human testicular microsomes; from tissue; host or cells: human testis, microsomes
T3 sequence (P05093 1-508): T1 sequence (P05093 1-508)
Method: as §1

[4] = biological target: T4, Human Prostatic 5α-Reductase (Homo sapiens, UniProt P31213); assay: Inhibition of human prostatic 5α-reductase (prostatic microsomes, [3H]testosterone); conditions: for inhibition at 0.01 µM: read-out: % Inhibition of 5α-reductase, [I] 10 nM; for inhibition at 0.1 µM: read-out: % Inhibition of 5α-reductase, [I] 100 nM; for inhibition at 0.4 µM: read-out: % Inhibition of 5α-reductase, [I] 400 nM
T4 sequence (P31213 1-254): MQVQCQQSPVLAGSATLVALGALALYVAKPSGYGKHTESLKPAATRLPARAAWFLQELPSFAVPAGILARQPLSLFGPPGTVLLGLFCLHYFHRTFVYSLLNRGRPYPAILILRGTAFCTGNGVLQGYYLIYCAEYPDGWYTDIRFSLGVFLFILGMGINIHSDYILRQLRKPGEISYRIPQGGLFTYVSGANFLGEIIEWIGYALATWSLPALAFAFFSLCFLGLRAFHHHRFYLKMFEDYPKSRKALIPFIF

[5] = Table 1, NI = no inhibition, read-out: IC50 17α-OHase
[6] = Table 1, NI = no inhibition, CI = complete inhibition, read-out: IC50 C17,20 lyase
[7] = first figure of pair, read-out: IC50 17α-hydroxylase
[8] = second figure of pair, read-out: IC50 C17,20-lyase

Row | Compound | inhibition of 17α-hydroxylase/C17,20-lyase (in words) [1] | IC50 [2, 5] [nM] | IC50 [3, 6] [nM] | inhibition at 0.1 µM [4] [%] | also measured
1 | CC(=NO)[C@H]1CC[C@H]2[C@@H]3CC=C4C[C@@H](O)CC[C@]4(C)[C@H]3CC[C@]12C [Compound I-1] | potent inhibition | – | – | – | –
2 | C[C@@H](N)[C@H]1CC[C@H]2[C@@H]3CC=C4C[C@@H](O)CC[C@]4(C)[C@H]3CC[C@]12C [Compound I-9] | poor inhibition | 89800 | 43900 | – | –
3 | C[C@H](N)[C@H]1CC[C@H]2[C@@H]3CC=C4C[C@@H](O)CC[C@]4(C)[C@H]3CC[C@]12C [Compound I-10] | poor inhibition | 9800 | 8000 | – | –
4 | CC(=O)[C@@]1(Br)CC[C@H]2[C@@H]3CC=C4C[C@@H](O)CC[C@]4(C)[C@H]3CC[C@@]21C [Compound I-11] | poor inhibition | 1300 | 970 | – | –
5 | CC(=NN)[C@H]1CC[C@H]2[C@@H]3CC=C4C[C@@H](O)CC[C@]4(C)[C@H]3CC[C@]12C [Compound I-12] | poor inhibition | – | – | – | –
6 | CC(=NN(C)C)C1=CC[C@H]2[C@@H]3CC=C4C[C@@H](O)CC[C@]4(C)[C@H]3CC[C@]12C [Compound I-14] | devoid of inhibitory activity | – | – | – | –
7 | C[C@H](C=NN(C)C)[C@H]1CC[C@H]2[C@@H]3CCC4=CC(=O)CC[C@]4(C)[C@H]3CC[C@]12C [Compound I-15] | devoid of inhibitory activity | – | – | 74.9 | inhibition at 0.01 µM [4]: 16.4%
8 | CC(=O)[C@@]12O[C@@H]1C[C@H]1[C@@H]3CC=C4C[C@@H](O)CC[C@]4(C)[C@H]3CC[C@@]12C [Compound I-17] | decreased potency | 440 | 680 | – | –
9 | CC(=O)[C@@]12O[C@@H]1C[C@H]1[C@@H]3CCC4=CC(=O)CC[C@]4(C)[C@H]3CC[C@@]12C [Compound I-18] | – | 480 | 800 | 76.2 | inhibition at 0.01 µM [4]: 15.1%
10 | C[C@H](O)[C@H]1CC[C@H]2[C@@H]3CC=C4C[C@@H](O)CC[C@]4(C)[C@H]3CC[C@]12C [Compound I-19] | – | – | – | – | IC50 ([2]; IC50 17α-OHase): 720 nM; inhibition of 5α-reductase (in words) ([4]; NI = no inhibition): neither showed activity against 5α-reductase; IC50 ([3]; IC50 C17,20 lyase): 510 nM
11 | CC(C#N)=C1CC[C@H]2[C@@H]3CCC4=CC(=O)CC[C@]4(C)[C@H]3CC[C@]12C [Compound I-26] | did not contribute to inhibition | – | – | 71.8 | inhibition at 0.01 µM [4]: 5.21%
12 | C[C@H](C=O)[C@H]1CC[C@H]2[C@@H]3CC=C4C[C@@H](O)CC[C@]4(C)[C@H]3CC[C@]12C [Compound I-31] | – | 80 | 80 | – | –
13 | C[C@H](C#N)[C@H]1CC[C@H]2[C@@H]3CCC4=CC(=O)CC[C@]4(C)[C@H]3CC[C@]12C [Compound I-32] | – | – | – | 79.2 | inhibition at 0.01 µM [4]: 21%
14 | CC(=O)O[C@H]1CC[C@@]2(C)C(=CC[C@@H]3[C@@H]2CC[C@]2(C)C(C(C)=O)=CC[C@@H]32)C1 [Compound I-37] | less activity than the 3-hydroxy compound | – | – | – | IC50 ([2]; read-out: IC50 17α-OHase): 1890 nM; IC50 ([3]; read-out: IC50 C17,20 lyase): 1710 nM
15 | CN(C=O)[C@H]1CC[C@H]2[C@@H]3CC=C4C[C@@H](O)CC[C@]4(C)[C@H]3CC[C@]12C [Compound I-39] | – | 290 | 280 | – | –
16 | C[C@]12CCC(=O)C=C1CC[C@@H]1[C@@H]2CC[C@@]2(C)[C@H]1CC[C@]2(O)c1c[nH]cn1 [Compound I-44] | – | 1200 | 1000 | – | IC50 [2, 7]: 1200 nM; IC50 [3, 8]: 1000 nM
17 | C[C@]12CC[C@H](O)CC1=CC[C@@H]1[C@@H]2CC[C@@]2(C)[C@H]1C[C@H]1O[C@]12c1c[nH]cn1 [Compound I-51] | – | 430 | 100 | – | IC50 [2, 7]: 431 nM; IC50 [3, 8]: 98 nM
18 | CCOC(=O)C1=CC[C@H]2[C@@H]3CC=C4C[C@@H](O)CC[C@]4(C)[C@H]3CC[C@]12C [Compound I-53] | – | 3040 | 2450 | – | –
19 | CN(C)N=C1CC[C@H]2[C@@H]3CC=C4C[C@@H](O)CC[C@]4(C)[C@H]3CC[C@]12C [Compound I-56] | – | 4200 | 2400 | – | –
20 | C[C@]12CC[C@H]3[C@@H](CCC4=CC(=O)CC[C@@]43C)[C@@H]1CC[C@@H]2c1ncc[nH]1 [Compound L-3] | – | – | – | 31.7 | inhibition at 0.1 µM ([2]; 100 nM, first figure of pair): 20.3%; inhibition at 0.4 µM ([2]; 400 nM, first figure of pair): 43.5%; inhibition at 0.4 µM [4]: 61.7%; inhibition at 0.1 µM ([3]; 100 nM, second figure of pair): 62.9%; inhibition at 0.4 µM ([3]; 400 nM, second figure of pair): 100%
21 | C[C@]12CC[C@H]3[C@@H](CC=C4C[C@@H](O)CC[C@@]43C)[C@@H]1CC[C@@H]2c1c[nH]c(-c2ccccc2)n1 [Compound L-7] | – | – | – | – | inhibition at 0.1 µM ([2]; 100 nM, first figure of pair): 10.3%; inhibition at 0.4 µM ([2]; 400 nM, first figure of pair): 20.9%; inhibition at 0.1 µM ([3]; 100 nM, second figure of pair): 9.5%; inhibition at 0.4 µM ([3]; 400 nM, second figure of pair): 33.8%
22 | C[C@H](O)C1=CC[C@H]2[C@@H]3CC=C4C[C@@H](O)CC[C@]4(C)[C@H]3CC[C@]12C [Compound L-9] | less active | – | – | – | inhibition at 0.01 µM [4]: 33.2%
23 | C=C1CC2C3CCC(OC(C)=O)C3(C)CCC2C2(C)CCC(=O)CC12 [Compound L-14, 17β-Acetoxy-6-methylene-5α-androst-3-one] | – | – | – | 5.77 | inhibition at 0.4 µM [4]: 11.4%
24 | C[C@]12CC[C@H]3[C@@H](CC[C@]45CC(=O)C=C[C@]34C5)[C@@H]1CCC2=O [Compound L-15, 5,19β-cycloandrost-1-ene-3,17-dione] | – | – | – | 23.3 | inhibition at 0.1 µM ([2]; 100 nM, first figure of pair): 7.25%; inhibition at 0.4 µM [4]: 60.9%; inhibition at 0.1 µM ([3]; 100 nM, second figure of pair): 28.8%
25 | C[C@]12CC[C@H]3[C@@H](CC[C@]45CC(=O)CC[C@]34[C@H]5O)[C@@H]1CC[C@@H]2O [Compound L-19, 17β,19(S)-dihydroxy 5,19β-cycloandrost-3-one] | – | – | – | 8.7 | inhibition at 0.4 µM [4]: 14.8%
26 | C[C@]12CC[C@H]3[C@@H](CC[C@]45CC(=O)CC[C@]34[C@@H]5O)[C@@H]1CCC2=O [Compound L-20, 19(R)-Hydroxy-5,19β-cyclo-androst-3,17-dione] | – | – | – | 5.89 | inhibition at 0.4 µM [4]: 12.2%
27 | CC1N[C@@]12CC[C@H]1[C@@H]3CC=C4C[C@@H](O)CC[C@]4(C)[C@H]3CC[C@@]12C (stereo partly drawn) [Compound L-21] | – | – | – | – | inhibition at 0.1 µM [2]: 8.47%; inhibition at 0.4 µM [2]: 23.7%; inhibition at 0.1 µM [3]: 29.1%; inhibition at 0.4 µM [3]: 52%
28 | CC1N[C@]12CC[C@H]1[C@@H]3CC=C4C[C@@H](O)CC[C@]4(C)[C@H]3CC[C@@]12C (stereo partly drawn) [Compound L-22] | – | – | – | – | inhibition at 0.1 µM [2]: 0%; inhibition at 0.4 µM [2]: 0%; inhibition at 0.1 µM [3]: 3.33%; inhibition at 0.4 µM [3]: 9.99%
29 | CO[C@@H]1[C@]23CC[C@@H]4[C@H](CC[C@]5(C)C(=O)CC[C@@H]45)[C@]12CCC(=O)[C@H]3C [Compound L-23, 4α-methyl-19-(S)-methoxy-5,19β-cycloandrost-3,17-dione] | – | – | – | 0 | inhibition at 0.4 µM [4]: 16.1%
30 | C[C@]12CC[C@H]3[C@@H](CCC4=CC(=O)CC[C@@]43CBr)[C@@H]1CCC2=O [Compound L-24, 19-Bromo-androst-4-ene-3,17-dione] | – | – | – | 12.3 | inhibition at 0.4 µM [4]: 52.7%
